Measurements as given in US20100210589A1, “METHOD FOR IMPROVING HEPATIC FUNCTION” (Kabushiki Kaisha Kayashibara Seibutsu Kagaku Kenkyujo, priority 2004, published 2010).

Test system: golden hamsters
Test: Administration test of α-glucosyl-hesperidin on hamsters (serum GOT and GPT, cholesterol-supplemented feed)
Assay type: in vivo, golden hamster
Conditions: compared with hesperidin at equal molar dose
Experimental: The animal experiment using hamsters was performed to investigate the influences of the intake of α-glucosyl-hesperidin on hepatic functions.
A group of five golden hamsters of five weeks old was fed on liberal amount of “NMF Lab Animal Diet Powder” (produced by Oriental Yeast Co., Ltd.) with the administration of “αG-HESPERIDINPS®” (a powdery α-glucosyl-hesperidin containing […] of α-glucosyl-hesperidin, commercialized by Hayashibara Shoji, Inc.) dissolved in distilled water. α-Glucosyl-hesperidin was administered to the hamsters through a stomach sonde at a dose of 0.25 mmole (193 mg)/kg/body weight every day. After two-week administrations of α-glucosyl-hesperidin, the hamsters were fed for additional three weeks in the same way as described above except that their feed was supplemented with 1% by weight of cholesterol. At four hours after the final administrations, the hamsters were anesthetized and underwent laparotomy, and their large-venous blood samples were taken. After the separation of the hamsters' serums by a conventional method, the levels of GOT and GPT were measured. […] The other group was fed on liberal amount of “NMF Lab Animal Diet Powder” with no administration of the test articles and their blood samples were taken in the same way as describe above, and the serum levels of GOT and GPT were measured to obtain the data before the administrations.

COc1ccc(C2CC(=O)c3c(O)cc(O[C@@H]4OC(CO[C@@H]5OC(C)[C@H](O)C(O)C5O)[C@@H](COC[C@H]5OC(CO)[C@@H](O)C(O)C5O)C(O)C4O)cc3O2)cc1O (stereo partly drawn) [α-Glucosyl-hesperidin, α-glucosyl-hesperidin]
effect for keeping hepatic-function indexes (serum GOT, GPT) at a lower level: greater effect than that of hesperidin
